According to US12252524B2, “GIP/GLP1 co-agonist compounds” (Eli Lilly and Company, priority 2018, dated 2025):
Numbered stars: 1 amine (or outer) side, 2 acyl side, 3 side chain; on linkers, the order of the positions; unused ones are H or OH. Square brackets hold non-standard residues; d marks the D form. Side chains are listed from the residue outwards. Peptide text beside a SMILES is read from it. * marks the point of attachment. C20 diacid = O=C(O)CCCCCCCCCCCCCCCCCCC(=O)*; C18 diacid = O=C(O)CCCCCCCCCCCCCCCCC(=O)*; γGlu = O=C(O)[C@H](CCC(=O)[*:2])N[*:1]; αMeY = C[C@](N)(Cc1ccc(O)cc1)C(=O)O; αMeL = CC(C)C[C@](C)(N)C(=O)O; Orn = NCCC[C@H](N)C(=O)O; AEEA = NCCOCCOCC(=O)O; Aib = CC(C)(N)C(=O)O

Legend:
[1] = target: T1, gastric inhibitory peptide receptor (GIPR) (Homo sapiens, UniProt P48546); assay: cAMP pharmacological functional assay in presence of casein, hGIPR; format: cell-based; conditions: HEK293 cells expressing hGIPR, 0.1% Casein, geometric mean; read-out: hGIPR cAMP Rel EC50 nM (SEM, n)
T1 sequence (P48546 22-466): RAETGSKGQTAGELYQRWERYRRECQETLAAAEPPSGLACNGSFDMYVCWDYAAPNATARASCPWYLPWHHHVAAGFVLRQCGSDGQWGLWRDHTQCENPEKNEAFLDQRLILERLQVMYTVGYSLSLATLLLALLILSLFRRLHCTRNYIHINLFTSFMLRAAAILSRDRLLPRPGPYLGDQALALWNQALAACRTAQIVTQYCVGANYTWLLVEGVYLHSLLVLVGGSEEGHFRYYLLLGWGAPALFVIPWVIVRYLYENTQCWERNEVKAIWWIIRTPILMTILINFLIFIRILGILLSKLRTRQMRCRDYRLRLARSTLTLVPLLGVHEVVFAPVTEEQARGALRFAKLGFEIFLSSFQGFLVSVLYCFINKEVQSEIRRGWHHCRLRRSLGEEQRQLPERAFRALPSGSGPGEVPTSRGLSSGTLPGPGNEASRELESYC

[2] = target: human GLP-1 receptor (GLP-1R) (Homo sapiens, UniProt P43220); assay: cAMP pharmacological functional assay in presence of casein, hGLP-1R; format: cell-based; conditions: HEK293 cells expressing hGLP-1R, 0.1% Casein, geometric mean; read-out: hGLP1R cAMP Rel EC50 nM (SEM, n)
in vitro = assay: in vitro
Description: The stability of peptides are compared in 1% rat small intestinal fluid (rSIF). The amount of intact peptide is measured for a sample peptide at 0, 3, 15, and 30 minutes to assess proteolytic stability. The amount of intact peptide for a sample peptide is measured in 90% pig small intestinal fluid (pSIF) at 0, 30, 45, and 60 minutes to assess the proteolytic stability.
Peptides are prepared at 0.4 mg/mL in 50 mM Tris pH8.0. […] The mixture is incubated at 37° C. at 150 rpm. Thirty μL of each sample are removed and placed into a new tube before the rSIF is added and at […]. At each time point, the reaction was quenched by 1% TFA in 50% ACN at 1:1. The samples are diluted 100 times using dilution buffer (1:1 of 1% TFA in 50% ACN: 50 mM Tris pH8) and ready for analysis using mass spectrometry (MS).
The data analysis is performed using MassLynx.

human GIP receptor = target: T2, human GIP receptor (Homo sapiens, UniProt P48546); assay: [125I]-GIP binding (SPA), human GIP receptor; conditions: read-out: hGIPR Ki, nM (SEM, n)
T2 construct: expressed in transfected cells; crude membranes
T2 sequence (P48546 22-466): T1 sequence (P48546 22-466)

human GLP-1R [3] = target: T3, human GLP-1R (Homo sapiens, UniProt P43220); assay: [125I]-GLP-1 binding (SPA), human GLP-1 receptor; set-up: expressed in transfected cells; crude membranes; conditions: read-out: hGLP1R Ki, (nM) (SEM, n)
Summary of the method: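 Assay buffer: HEPES 25 mM, pH 7.4, CaCl2 2.5 mM, MgCl2 1 mM, with EDTA-free protease inhibitors. Receptor came from crude cell membranes prepared by homogenization and centrifugation at 4° C. IC50s came from four-parameter fits (maximum, minimum, IC50, Hill slope) and were expressed as Ki geometric means with SEM.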

human Gcg receptor = target: T4, human Gcg receptor (Homo sapiens, UniProt P47871); assay: [125I]-Glucagon binding (SPA), human Gcg receptor; conditions: read-out: hGLcgR Ki, nM (SEM, n)
T4 construct: expressed in transfected cells; crude membranes
Summary of the method: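 Cell pellets were lysed in hypotonic Tris buffer, pH 7.5, homogenized, and spun at low then high speed to give crude membranes. Ki was derived from the fitted IC50.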

human GLP-1R [4] = target: T3, human GLP-1R; assay: GLP-1R HEK293 cell membrane [35S]GTPγS binding assay; format: biochemical; set-up: expressed in transfected cells; host or cells: HEK293 cells expressing human GLP-1R; membranes; conditions: HEK293 cell membranes expressing human GLP-1R, [35S]GTPγS binding; read-out: hGLP1R GTPgS Rel EC50 nM (SEM, n)
Summary of the method: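 Agonist-driven Gαs activation read as [35S]GTPγS ([…]) binding to receptor-expressing HEK293 membranes, 30 min at room temperature, pH 7.4. Detection by anti-Gαs immunocapture on scintillation beads; EC50 derived from four-parameter logistic concentration-response fit.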

human GLP-1R [5] = target: T3, human GLP-1R; assay: GLP-1R CHO cell β-arrestin recruitment assay; format: cell-based; set-up: host or cells: CHO-K1 PathHunter cells, assay-ready frozen; conditions: for EC50: CHO-K1 cells, PathHunter β-arrestin-2 recruitment, 0.1% casein, read-out: hGLP1R B-Arrestin2 Rel EC50 uM (SEM, n); for hGLP1R B-Arrestin2 % Top: normalized to GLP-1 maximum control
Summary of the method: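 Peptide-induced β-arrestin-2 recruitment measured by enzyme-fragment complementation luminescence after 90 min at 37 °C plus 60 min detection at RT.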

[6] = system: CD8+ T cell depleted peripheral blood mononuclear cells; assay: CD4+ T cell assay for potential clinical immunogenicity; conditions: Examples 10 uM, KLH 0.33 μM, 7 days
[7] = rat, real gastrointestinal fluid or homogenate, pH 8

T4 sequence (P47871 26-477): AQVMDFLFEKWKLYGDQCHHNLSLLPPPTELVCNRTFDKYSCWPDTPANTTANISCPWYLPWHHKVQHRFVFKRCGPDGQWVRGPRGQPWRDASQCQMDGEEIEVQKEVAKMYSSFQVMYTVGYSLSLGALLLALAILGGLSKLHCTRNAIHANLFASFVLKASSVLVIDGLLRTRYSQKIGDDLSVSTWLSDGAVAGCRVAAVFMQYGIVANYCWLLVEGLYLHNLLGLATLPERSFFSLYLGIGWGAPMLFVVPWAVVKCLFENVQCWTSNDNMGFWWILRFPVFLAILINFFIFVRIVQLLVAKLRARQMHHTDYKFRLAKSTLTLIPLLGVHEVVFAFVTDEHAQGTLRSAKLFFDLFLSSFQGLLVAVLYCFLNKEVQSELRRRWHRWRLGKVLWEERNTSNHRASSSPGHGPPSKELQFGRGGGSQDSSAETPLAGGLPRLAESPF
T3 sequence (P43220 24-463): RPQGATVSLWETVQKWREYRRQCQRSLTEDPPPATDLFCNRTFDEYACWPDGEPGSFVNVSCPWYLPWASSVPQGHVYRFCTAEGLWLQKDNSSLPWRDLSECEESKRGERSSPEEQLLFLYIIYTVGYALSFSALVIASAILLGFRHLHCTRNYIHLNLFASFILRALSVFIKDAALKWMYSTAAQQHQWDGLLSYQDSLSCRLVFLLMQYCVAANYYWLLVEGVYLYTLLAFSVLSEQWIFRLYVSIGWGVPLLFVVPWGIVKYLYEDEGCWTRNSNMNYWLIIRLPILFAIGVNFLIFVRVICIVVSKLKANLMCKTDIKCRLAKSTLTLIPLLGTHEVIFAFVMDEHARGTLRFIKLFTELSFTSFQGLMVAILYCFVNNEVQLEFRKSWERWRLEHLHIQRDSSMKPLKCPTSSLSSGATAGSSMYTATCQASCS
human GLP-1 receptor (GLP-1R), sequence (P43220 24-463): as above

Row | Molecule | EC50 [1] | EC50 [2] | percentage of peptide not cleaved using rSIF (in vitro) | remaining at 0.05 h, 0.4 mg/mL (in vitro; [7]) | remaining at 0.25 h, 0.4 mg/mL (in vitro; [7]) | remaining at 1 h, 0.4 mg/mL (in vitro; [7]) | Ki (human GIP receptor) | Ki (human GLP-1R [3]) | Ki (human Gcg receptor) | EC50 (human GLP-1R [4]) | EC50 (human GLP-1R [5]) | hGLP1R B-Arrestin2 % Top (human GLP-1R [5]) | % Donor Response (CD4+ T cell response) [6] | Median Response Strength in positive donors (CDI) [6]
1 | CC[C@H](C)[C@H](NC(=O)[C@H](CC(C)C)NC(=O)[C@H](Cc1ccc(O)cc1)NC(=O)[C@H](CCC(=O)O)NC(=O)[C@@H](NC(=O)[C@H](Cc1ccccc1)NC(=O)[C@H](C)NC(=O)C(C)(C)NC(=O)[C@H](CCC(N)=O)NC(=O)[C@H](C)NC(=O)[C@H](CCCCNC(=O)COCCOCCNC(=O)COCCOCCNC(=O)CC[C@H](NC(=O)CCCCCCCCCCCCCCCCCCC(=O)O)C(=O)O)NC(=O)[C@H](CCCCN)NC(=O)[C@H](CC(=O)O)NC(=O)[C@H](CC(C)C)NC(=O)[C@](C)(CC(C)C)NC(=O)[C@@H](NC(=O)[C@H](CO)NC(=O)[C@H](Cc1ccc(O)cc1)NC(=O)[C@H](CC(=O)O)NC(=O)[C@H](CO)NC(=O)[C@@H](NC(=O)[C@](C)(Cc1ccccc1)NC(=O)[C@@H](NC(=O)CNC(=O)[C@H](CCC(=O)O)NC(=O)C(C)(C)NC(=O)[C@@H](N)Cc1ccc(O)cc1)[C@@H](C)O)[C@@H](C)O)[C@@H](C)CC)[C@@H](C)CC)C(=O)N[C@@H](CCC(=O)O)C(=O)NCC(=O)NCC(=O)N1CCC[C@H]1C(=O)N[C@@H](CO)C(=O)N[C@@H](CO)C(=O)NCC(=O)N[C@@H](C)C(=O)N1CCC[C@H]1C(=O)N1CCC[C@H]1C(=O)N1CCC[C@H]1C(=O)N[C@@H](CO)C(N)=O [Example 69] | 0.0712 nM | 0.0844 nM | 100% | 2.2% | 0% | 0% | 0.03 nM | 1.22 nM | 22.1 nM | – | – | – | – | –
2 | CC[C@H](C)[C@H](NC(=O)[C@H](CC(C)C)NC(=O)[C@H](Cc1ccc(O)cc1)NC(=O)[C@H](CCC(=O)O)NC(=O)[C@@H](NC(=O)[C@H](Cc1ccccc1)NC(=O)[C@H](CCC(=O)O)NC(=O)C(C)(C)NC(=O)[C@H](CCC(N)=O)NC(=O)[C@H](C)NC(=O)[C@H](CCCCNC(=O)COCCOCCNC(=O)COCCOCCNC(=O)CC[C@H](NC(=O)CCCCCCCCCCCCCCCCCCC(=O)O)C(=O)O)NC(=O)[C@H](CCCN)NC(=O)[C@H](CC(=O)O)NC(=O)[C@H](CC(C)C)NC(=O)[C@](C)(CC(C)C)NC(=O)[C@@H](NC(=O)[C@H](CO)NC(=O)[C@H](Cc1ccc(O)cc1)NC(=O)[C@H](CC(=O)O)NC(=O)[C@H](CO)NC(=O)[C@@H](NC(=O)[C@H](Cc1ccccc1)NC(=O)[C@@H](NC(=O)CNC(=O)[C@H](CCC(=O)O)NC(=O)C(C)(C)NC(=O)[C@H](N)Cc1ccc(O)cc1)[C@@H](C)O)[C@@H](C)O)[C@@H](C)CC)C(C)C)C(=O)N[C@@H](C)C(=O)NCC(=O)NCC(=O)N1CCC[C@H]1C(=O)N[C@@H](CO)C(=O)N[C@@H](CO)C(=O)NCC(=O)N[C@@H](C)C(=O)N1CCC[C@H]1C(=O)N1CCC[C@H]1C(=O)N1CCC[C@H]1C(=O)N[C@@H](CO)C(N)=O [Example 359] (H-[dY][Aib]EGTFTSDYSI[αMeL]LD[Orn]K([AEEA-AEEA-γGlu-C20 diacid])AQ[Aib]EFVEYLIAGGPSSGAPPPS-NH2) | 0.172 nM | 0.131 nM | – | – | – | – | 0.0874 nM | 2.59 nM | > 982 nM | 0.496 nM | 0.0841 µM | 28.4% | – | –
3 | CC[C@H](C)[C@H](NC(=O)[C@H](CC(C)C)NC(=O)[C@H](Cc1ccc(O)cc1)NC(=O)[C@@H](CCC(=O)O)NC(=O)[C@@H](NC(=O)[C@H](Cc1ccccc1)NC(=O)[C@H](C)NC(=O)C(C)(C)NC(=O)[C@H](CCC(N)=O)NC(=O)[C@H](C)NC(=O)[C@H](CCCCNC(=O)COCCOCCNC(=O)COCCOCCNC(=O)CC[C@H](NC(=O)CCCCCCCCCCCCCCCCC(=O)O)C(=O)O)NC(=O)[C@H](CCCN)NC(=O)[C@H](CC(=O)O)NC(=O)[C@H](CC(C)C)NC(=O)[C@](C)(CC(C)C)NC(=O)[C@@H](NC(=O)[C@H](CO)NC(=O)[C@H](Cc1ccc(O)cc1)NC(=O)[C@H](CC(=O)O)NC(=O)[C@H](CO)NC(=O)[C@@H](NC(=O)[C@H](Cc1ccccc1)NC(=O)[C@@H](NC(=O)CNC(=O)[C@H](CCC(=O)O)NC(=O)C(C)(C)NC(=O)[C@H](N)Cc1ccc(O)cc1)[C@@H](C)O)[C@@H](C)O)[C@@H](C)CC)[C@@H](C)CC)C(=O)N[C@@H](C)C(=O)NCC(=O)NCC(=O)N1CCC[C@H]1C(=O)N[C@@H](CO)C(=O)N[C@@H](CO)C(=O)NCC(=O)N[C@@H](C)C(=O)N1CCC[C@H]1C(=O)N1CCC[C@H]1C(=O)N1CCC[C@H]1C(=O)N[C@@H](CO)C(N)=O [Example 363] (H-[dY][Aib]EGTFTSDYSI[αMeL]LD[Orn]K([AEEA-AEEA-γGlu-C18 diacid])AQ[Aib]AFI[dE]YLIAGGPSSGAPPPS-NH2) | 0.145 nM | 0.208 nM | – | – | – | – | 0.17 nM | 3.89 nM | > 1020 nM | 0.943 nM | 0.135 µM | 22.1% | – | –
4 | CC[C@H](C)[C@H](NC(=O)[C@H](CC(C)C)NC(=O)[C@](C)(Cc1ccc(O)cc1)NC(=O)[C@H](CCC(=O)O)NC(=O)[C@@H](NC(=O)[C@H](Cc1ccccc1)NC(=O)[C@H](CCC(=O)O)NC(=O)C(C)(C)NC(=O)[C@H](CCC(N)=O)NC(=O)[C@H](C)NC(=O)[C@H](CCCCNC(=O)COCCOCCNC(=O)COCCOCCNC(=O)CC[C@H](NC(=O)CCCCCCCCCCCCCCCCCCC(=O)O)C(=O)O)NC(=O)[C@H](CCCCN)NC(=O)[C@H](CC(=O)O)NC(=O)[C@H](CC(C)C)NC(=O)[C@](C)(CC(C)C)NC(=O)[C@@H](NC(=O)[C@H](CO)NC(=O)[C@H](Cc1ccc(O)cc1)NC(=O)[C@H](CC(=O)O)NC(=O)[C@H](CO)NC(=O)[C@@H](NC(=O)[C@H](Cc1ccccc1)NC(=O)[C@@H](NC(=O)CNC(=O)[C@H](CCC(=O)O)NC(=O)C(C)(C)NC(=O)[C@@H](N)Cc1ccc(O)cc1)[C@@H](C)O)[C@@H](C)O)[C@@H](C)CC)[C@@H](C)CC)C(=O)N[C@@H](C)C(=O)NCC(=O)NCC(=O)N1CCC[C@H]1C(=O)N[C@@H](CO)C(=O)N[C@@H](CO)C(=O)NCC(=O)N[C@@H](C)C(=O)N1CCC[C@H]1C(=O)N1CCC[C@H]1C(=O)N1CCC[C@H]1C(=O)N[C@@H](CO)C(N)=O [Example 367] (H-Y[Aib]EGTFTSDYSI[αMeL]LDKK([AEEA-AEEA-γGlu-C20 diacid])AQ[Aib]EFIE[αMeY]LIAGGPSSGAPPPS-NH2) | 0.0179 nM | 0.0641 nM | – | – | – | – | 0.0282 nM | 0.809 nM | 777 nM | 0.289 nM | 0.00666 µM | 70.6% | – | –
5 | keyhole limpet hemocyanin [KLH, reference compound] | – | – | – | – | – | – | – | – | – | – | – | – | 100% | 391 CDI
